Test results taken from patent publication EP4631937A1, “CRYSTALLINE FORM OR AMORPHOUS FORM OF OXOISOINDOLE-5-FORMAMIDE COMPOUND OR SALT AND SOLVATE THEREOF” (Hangzhou Glubio Pharmaceutical Co., Ltd., priority 2022, dated 2024).

Tests used:
[1] = Hygroscopicity test by DVS, with XRPD after DVS; format: physicochemical; details: 25 °C, listed as Crystalline form G
Procedure: • DVS Intrinsic Dynamic Vapor Sorption Instrument • Gas flow rate 200 sccm, furnace temperature 25 °C.
The hygroscopicity and dehydration behavior of crystalline form B was investigated by DVS. Humidity program: 25 °C, 40-0-95-0-40% RH, dm/dt 0.002, shortest equilibrium time was 60 min, and longest equilibrium time was 360 min. XRPD was also performed on the samples after DVS test to determine whether the crystal transformation occurred.
The hygroscopicity and dehydration behavior of crystalline form E was investigated by DVS. Humidity program: 25 °C, 40-0-95-0-40% RH, dm/dt 0.002, shortest equilibrium time was 60 min, and longest equilibrium time was 360 min. XRPD was also performed on the samples after DVS test to determine whether the crystal transformation occurred.
The hygroscopicity and dehydration behavior of crystalline form G was investigated by DVS. Humidity program: 25 °C, 40-0-95-0-40% RH, dm/dt 0.002, shortest equilibrium time was 60 min, and longest equilibrium time was 360 min. XRPD was also performed on the samples after DVS test to determine whether the crystal transformation occurred.

[2] = Pharmacokinetic evaluation in mice by gavage; format: in vivo; design: AUClast /D: unit not given here; details: CD1 male mice, oral, 30 mg/kg, 25 mM citrate buffer (pH 3) containing 5% Tween 80
Procedure: CD1 male mice were selected and the test compound was administered orally. The drug concentration in plasma at different time points was quantitatively determined by LC/MS/MS to evaluate the pharmacokinetic characteristics of the test drug in mice.
Experimental materials: CD1 Mouse (male, 20-30 g, 6-8 weeks old, Zhejiang Weitong Lihua).
Blood was collected from the dorsal plantar vein at 0.25 h, 0.5 h, 1 h, 2 h, 4 h, 6 h, 8 h and 24 h after administration, placed in an anticoagulant tube containing EDTA-K2 and mixed, and centrifuged at 4°C and 4000 g for 5 minutes. The drug concentration in blood was determined by LC-MS/MS, and the relevant pharmacokinetic parameters were calculated by the non-compartmental linear/log trapezoidal method using Phoenix WinNonlin 6.3 pharmacokinetic software.

[3] = Stability test of crystalline forms (open container at 25°C/92% RH and 40°C/75% RH, sealed container at 60°C, 13 days; XRPD, HPLC, colour); format: physicochemical; details: Solid, 1 week, listed as Crystalline form G; for Chemical purity / Chiral purity: HPLC/SFC
[4] = as above; format: physicochemical; details: initial, before storage; listed as Crystalline form G
Procedure: Placed in a open container at 25°C/92% RH and 40°C/75% RH for 13 days, respectively, or in a sealed container at 60°C for 13 days. […]
(§1) Placed in a open container at 25 °C/92% RH and 40 °C/75% RH for 13 days, respectively, or in a sealed container at 60 °C for 13 days. […]
as §1

[5] = Simulated tableting experiment (XRPD after pressing); format: physicochemical
Procedure: About 10 mg of crystalline form G was weighed and pressed at 2 MPa, 5 MPa or 10 MPa for 5 min. The crystal transformation and the change of crystallinity were investigated by XRPD characterization.

For `O=C1CC[C@H](N2Cc3cc(C(=O)N[C@H](c4ccc(Cl)cn4)C4CCC4)ccc3C2=O)C(=O)N1` [crystalline form G, N-((S)-(5-chloropyridin-2-yl)(cyclobutyl)methyl)-2-((S)-2,6-dioxopiperidin-3-yl)-1-oxoisoindoline-5-carboxamide], the “1st adsorption weight change percentage” value ([1]; relative humidity 0%) was 0.0%, the “1st desorption weight change percentage” value ([1]; relative humidity 0%) was 0.0% and the “1st adsorption weight change percentage” value ([1]; relative humidity 10%) was 0.0%. For the same compound, the “1st desorption weight change percentage” value ([1]; relative humidity 10%) was 0.1%, the “2nd adsorption weight change percentage” value ([1]; relative humidity 10%) was 0.0% and the “2nd desorption weight change percentage” value ([1]; relative humidity 10%) was 0.1%. The “1st adsorption weight change percentage” value ([1]; relative humidity 20%) was 0.0%, the “1st desorption weight change percentage” value ([1]; relative humidity 20%) was 0.1% and the “2nd adsorption weight change percentage” value ([1]; relative humidity 20%) was 0.0%. For the same compound, the “2nd desorption weight change percentage” value ([1]; relative humidity 20%) was 0.1%, the “1st adsorption weight change percentage” value ([1]; relative humidity 30%) was 0.1% and the “1st desorption weight change percentage” value ([1]; relative humidity 30%) was 0.2%. The “2nd adsorption weight change percentage” value ([1]; relative humidity 30%) was 0.1%, the “2nd desorption weight change percentage” value ([1]; relative humidity 30%) was 0.2% and the “1st adsorption weight change percentage” value ([1]; relative humidity 40%) was 0.1%. For the same compound, the “1st desorption weight change percentage” value ([1]; relative humidity 40%) was 0.3%, the “2nd adsorption weight change percentage” value ([1]; relative humidity 40%) was 0.1% and the “2nd desorption weight change percentage” value ([1]; relative humidity 40%) was 0.3%. The “1st adsorption weight change percentage” value ([1]; relative humidity 50%) was 0.2%, the “2nd desorption weight change percentage” value ([1]; relative humidity 50%) was 0.3% and the “1st adsorption weight change percentage” value ([1]; relative humidity 60%) was 0.2%. For the same compound, the “2nd desorption weight change percentage” value ([1]; relative humidity 60%) was 0.4%, the “1st adsorption weight change percentage” value ([1]; relative humidity 70%) was 0.3% and the “2nd desorption weight change percentage” value ([1]; relative humidity 70%) was 0.4%. The “1st adsorption weight change percentage” value ([1]; relative humidity 80%) was 0.3%, the “2nd desorption weight change percentage” value ([1]; relative humidity 80%) was 0.5% and the “1st adsorption weight change percentage” value ([1]; relative humidity 90%) was 0.5%. The “2nd desorption weight change percentage” value ([1]; relative humidity 90%) was 0.5%, the “1st adsorption weight change percentage” value ([1]; relative humidity 95%) was 0.7% and the “2nd desorption weight change percentage” value ([1]; relative humidity 95%) was 0.7%. For the same compound, the “XRPD after DVS test” value ([1]; after 40-0-95-0-40% RH) was “The crystal form did not change, see Figure 20b”, the “moisture adsorbed (DVS)” value ([1]; under 40%RH-95%RH) was 0.6% of moisture was adsorbed under 40%RH-95%RH, see Figure 20a and the “AUClast /D” value ([2]; dose-normalised) was 306 ± 35. For the same compound, the AUC(0-inf) ([2]; mouse, plasma) was 10700 ± 2100 ng·h/mL, the AUC(0-t) ([2]; mouse, plasma) was 9170 ± 1050 ng·h/mL and the Cmax ([2]; mouse, plasma) was 1370 ± 365 ng/mL. For the same compound, the Tmax ([2]; mouse, plasma) was 0.42 h, the half-life ([2]; mouse, plasma) was 8.7 h and the Chemical purity ([3]; 25 °C/92% RH, open container) was 99.4%. The Chiral purity ([3]; 25 °C/92% RH, open container) was 97.8%, the “Solid (XRPD)” value ([3]; 25 °C/92% RH, open container) was “The crystal form did not change, see Figure 17c” and the Chemical purity ([3]; 40 °C/75% RH, open container) was 99.5%. The Chiral purity ([3]; 40 °C/75% RH, open container) was 97.8%, the “Solid (XRPD)” value ([3]; 40 °C/75% RH, open container) was “The crystal form did not change, see Figure 17c” and the Chemical purity ([3]; 60 °C, sealed container) was 99.5%. The Chiral purity ([3]; 60 °C, sealed container) was 97.7%, the “Solid (XRPD)” value ([3]; 60 °C, sealed container) was “The crystal form did not change, see Figure 17c” and the “Initial purity (HPLC/SFC) Chemical purity” value [4] was 99.7%. For the same compound, the “Initial purity (HPLC/SFC) Chiral purity” value [4] was 97.6%, the “Notes (change of crystallinity)” value ([5]; pressed at 2 MPa for 5 min) was “No significant change in crystallinity” and the XRPD ([5]; pressed at 2 MPa for 5 min) was “Crystalline form G, see Figure 21a”. For the same compound, the “Notes (change of crystallinity)” value ([5]; pressed at 5 MPa for 5 min) was “No significant change in crystallinity”, the XRPD ([5]; pressed at 5 MPa for 5 min) was “Crystalline form G, see Figure 21a” and the “Notes (change of crystallinity)” value ([5]; pressed at 10 MPa for 5 min) was “No significant change in crystallinity”. For the same compound, the XRPD ([5]; pressed at 10 MPa for 5 min) was “Crystalline form G, see Figure 21a” and the change in crystallinity ([5]; tableted at 2 MPa, 5 MPa and 10 MPa pressures) was “no significant change in crystallinity was observed”.
